Measured values as given in PubChem BioAssay (NCI).
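48-hour exposure; five concentrations; linearly interpolated endpoints. TGI marks complete inhibition of growth.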

Tests used:
Assay in all cases: inhibition of tumour cell growth, NCI panel, 48 h
HS 578T breast = system: HS 578T breast
SK-OV-3 ovarian = system: SK-OV-3 ovarian
OVCAR-5 ovarian = system: OVCAR-5 ovarian
CCRF-CEM leukemia = system: CCRF-CEM leukemia
PC-3 prostate = system: PC-3 prostate
DU-145 prostate = system: DU-145 prostate
NCI-H460 lung = system: NCI-H460 lung
MOLT-4 leukemia = system: MOLT-4 leukemia
IGROV1 ovarian = system: IGROV1 ovarian
ACHN renal = system: ACHN renal
HT29 colon = system: HT29 colon
NCI-H226 lung = system: NCI-H226 lung
HCT-116 colon = system: HCT-116 colon
HOP-92 NSCLC = system: HOP-92 NSCLC
UACC-257 melanoma = system: UACC-257 melanoma
OVCAR-8 ovarian = system: OVCAR-8 ovarian
HL-60(TB) leukemia = system: HL-60(TB) leukemia
OVCAR-4 ovarian = system: OVCAR-4 ovarian
SF-539 CNS = system: SF-539 CNS
SK-MEL-28 melanoma = system: SK-MEL-28 melanoma
NCI/ADR-RES ovarian = system: NCI/ADR-RES ovarian
UO-31 renal = system: UO-31 renal
M14 melanoma = system: M14 melanoma
SNB-19 CNS = system: SNB-19 CNS
MDA-N = system: MDA-N
SNB-75 CNS = system: SNB-75 CNS
A549 NSCLC = system: A549 NSCLC
UACC-62 melanoma = system: UACC-62 melanoma
MCF7 breast = system: MCF7 breast
COLO 205 colon = system: COLO 205 colon
EKVX NSCLC = system: EKVX NSCLC
MDA-MB-231 breast = system: MDA-MB-231 breast
T-47D breast = system: T-47D breast
KM12 colon = system: KM12 colon
CAKI-1 renal = system: CAKI-1 renal
NCI-H23 lung = system: NCI-H23 lung
SR leukemia = system: SR leukemia
786-0 renal = system: 786-0 renal
HOP-62 NSCLC = system: HOP-62 NSCLC
HCC-2998 colon = system: HCC-2998 colon
A498 renal = system: A498 renal
OVCAR-3 ovarian = system: OVCAR-3 ovarian
SF-268 CNS = system: SF-268 CNS
TK-10 renal = system: TK-10 renal
HCT-15 colon = system: HCT-15 colon
NCI-H522 lung = system: NCI-H522 lung
SF-295 CNS = system: SF-295 CNS
SW-620 colon = system: SW-620 colon
MDA-MB-435 = system: MDA-MB-435
MALME-3M melanoma = system: MALME-3M melanoma
RXF 393 renal = system: RXF 393 renal
K-562 leukemia = system: K-562 leukemia
SK-MEL-2 melanoma = system: SK-MEL-2 melanoma
SK-MEL-5 melanoma = system: SK-MEL-5 melanoma
LOX IMVI melanoma = system: LOX IMVI melanoma
BT-549 breast = system: BT-549 breast
RPMI-8226 leukemia = system: RPMI-8226 leukemia
U251 CNS = system: U251 CNS
SN12C renal = system: SN12C renal

SMILES: CC1=C2C(=O)c3ccccc3C(=O)[C@H]2[C@H]2CCO[C@H]2O1
- TGI (HS 578T breast): > 100 µM
- TGI (SK-OV-3 ovarian): > 100 µM
- TGI (OVCAR-5 ovarian): 49.2 µM
- TGI (CCRF-CEM leukemia): 69.8 µM
- TGI (PC-3 prostate): > 100 µM
- TGI (DU-145 prostate): 47 µM
- TGI (NCI-H460 lung): 45.1 µM
- TGI (MOLT-4 leukemia): > 100 µM
- TGI (IGROV1 ovarian): 31.1 µM
- TGI (ACHN renal): 45.5 µM
- TGI (HT29 colon): 95.2 µM
- TGI (NCI-H226 lung): > 100 µM
- TGI (HCT-116 colon): 79 µM
- TGI (HOP-92 NSCLC): 42.3 µM
- TGI (UACC-257 melanoma): 36.5 µM
- TGI (OVCAR-8 ovarian): 45.2 µM
- TGI (HL-60(TB) leukemia): 61.1 µM
- TGI (OVCAR-4 ovarian): 37.4 µM
- TGI (SF-539 CNS): 43.9 µM
- TGI (SK-MEL-28 melanoma): 63.1 µM
- TGI (NCI/ADR-RES ovarian): 67 µM
- TGI (UO-31 renal): 35.7 µM
- TGI (M14 melanoma): 40.2 µM
- TGI (SNB-19 CNS): > 100 µM
- TGI (MDA-N): 36.6 µM
- TGI (SNB-75 CNS): 43 µM
- TGI (A549 NSCLC): > 100 µM
- TGI (UACC-62 melanoma): 39.7 µM
- TGI (MCF7 breast): 23.6 µM
- TGI (COLO 205 colon): > 100 µM
- TGI (EKVX NSCLC): 91.6 µM
- TGI (MDA-MB-231 breast): 51.7 µM
- TGI (T-47D breast): > 100 µM
- TGI (KM12 colon): 58.1 µM
- TGI (CAKI-1 renal): 46 µM
- TGI (NCI-H23 lung): 45.6 µM
- TGI (SR leukemia): > 100 µM
- TGI (786-0 renal): 37.8 µM
- TGI (HOP-62 NSCLC): 40 µM
- TGI (HCC-2998 colon): 48.1 µM
- TGI (A498 renal): > 100 µM
- TGI (OVCAR-3 ovarian): 36.5 µM
- TGI (SF-268 CNS): 35.1 µM
- TGI (TK-10 renal): 67 µM
- TGI (HCT-15 colon): 86 µM
- TGI (NCI-H522 lung): 32 µM
- TGI (SF-295 CNS): 48.9 µM
- TGI (SW-620 colon): 53.1 µM
- TGI (MDA-MB-435): 39.8 µM
- TGI (MALME-3M melanoma): 35.9 µM
- TGI (RXF 393 renal): 31.3 µM
- TGI (K-562 leukemia): 74.5 µM
- TGI (SK-MEL-2 melanoma): 36.6 µM
- TGI (SK-MEL-5 melanoma): 30.8 µM
- TGI (LOX IMVI melanoma): 58.4 µM
- TGI (BT-549 breast): 28.2 µM
- TGI (RPMI-8226 leukemia): 70.4 µM
- TGI (U251 CNS): 59.3 µM
- TGI (SN12C renal): 40.4 µM

SMILES: N#C/C(=C\c1ccccc1)C(=O)Nc1nnc(-c2ccccc2)o1
- TGI (HS 578T breast): > 100 µM
- TGI (SK-OV-3 ovarian): > 100 µM
- TGI (OVCAR-5 ovarian): > 100 µM
- TGI (CCRF-CEM leukemia): 50.6 µM
- TGI (PC-3 prostate): > 100 µM
- TGI (DU-145 prostate): > 100 µM
- TGI (MOLT-4 leukemia): > 100 µM
- TGI (IGROV1 ovarian): > 100 µM
- TGI (ACHN renal): > 100 µM
- TGI (HT29 colon): > 100 µM
- TGI (NCI-H226 lung): > 100 µM
- TGI (HCT-116 colon): > 100 µM
- TGI (HOP-92 NSCLC): > 100 µM
- TGI (UACC-257 melanoma): 87.4 µM
- TGI (OVCAR-8 ovarian): > 100 µM
- TGI (HL-60(TB) leukemia): 40.9 µM
- TGI (OVCAR-4 ovarian): > 100 µM
- TGI (SK-MEL-28 melanoma): > 100 µM
- TGI (NCI/ADR-RES ovarian): > 100 µM
- TGI (UO-31 renal): > 100 µM
- TGI (M14 melanoma): > 100 µM
- TGI (MDA-N): > 100 µM
- TGI (SNB-75 CNS): > 100 µM
- TGI (A549 NSCLC): > 100 µM
- TGI (UACC-62 melanoma): 53.7 µM
- TGI (MCF7 breast): > 100 µM
- TGI (COLO 205 colon): 80.4 µM
- TGI (EKVX NSCLC): > 100 µM
- TGI (MDA-MB-231 breast): > 100 µM
- TGI (T-47D breast): > 100 µM
- TGI (KM12 colon): > 100 µM
- TGI (CAKI-1 renal): 73.2 µM
- TGI (NCI-H23 lung): > 100 µM
- TGI (SR leukemia): 93.2 µM
- TGI (786-0 renal): > 100 µM
- TGI (HOP-62 NSCLC): > 100 µM
- TGI (HCC-2998 colon): > 100 µM
- TGI (A498 renal): 72.7 µM
- TGI (OVCAR-3 ovarian): 66.3 µM
- TGI (SF-268 CNS): > 100 µM
- TGI (TK-10 renal): > 100 µM
- TGI (HCT-15 colon): > 100 µM
- TGI (NCI-H522 lung): > 100 µM
- TGI (SF-295 CNS): > 100 µM
- TGI (SW-620 colon): > 100 µM
- TGI (MDA-MB-435): > 100 µM
- TGI (MALME-3M melanoma): > 100 µM
- TGI (RXF 393 renal): > 100 µM
- TGI (K-562 leukemia): > 100 µM
- TGI (SK-MEL-2 melanoma): > 100 µM
- TGI (SK-MEL-5 melanoma): 38.3 µM
- TGI (LOX IMVI melanoma): > 100 µM
- TGI (BT-549 breast): > 100 µM
- TGI (RPMI-8226 leukemia): 62.6 µM
- TGI (U251 CNS): > 100 µM
- TGI (SN12C renal): > 100 µM
